These results are taken from ChEMBL document CHEMBL5728770, “Heterocycle comprising tyrosine kinase inhibitors” (2021).

The target in the experiment is Tyrosine-protein kinase BTK (Homo sapiens, UniProt Q06187). Nature of the experiment: Enzymatic Activity Assay: A Caliper-based kinase assay (Caliper Life Sciences, Hopkinton, Mass.) was used to measure inhibition of BTK kinase activity of a compound of the present disclosure. Serial dilutions of test compounds were incubated with human recombinant BTK (0.5 nM), ATP (16 μM) and a phosphoacceptor peptide substrate FAM-GEEPLYWSFPAKKK-NH2 (1 μM) at room temperature for 3 h. The reaction was then terminated with EDTA, final concentration 20 mM and the phosphorylated reaction product was quantified on a Caliper Desktop Profiler (Caliper LabChip 3000). Percent inhibition was calculated for each compound dilution and the concentration that produced 50% inhibition was calculated.
Tyrosine-protein kinase BTK, sequence (Q06187 whole entry): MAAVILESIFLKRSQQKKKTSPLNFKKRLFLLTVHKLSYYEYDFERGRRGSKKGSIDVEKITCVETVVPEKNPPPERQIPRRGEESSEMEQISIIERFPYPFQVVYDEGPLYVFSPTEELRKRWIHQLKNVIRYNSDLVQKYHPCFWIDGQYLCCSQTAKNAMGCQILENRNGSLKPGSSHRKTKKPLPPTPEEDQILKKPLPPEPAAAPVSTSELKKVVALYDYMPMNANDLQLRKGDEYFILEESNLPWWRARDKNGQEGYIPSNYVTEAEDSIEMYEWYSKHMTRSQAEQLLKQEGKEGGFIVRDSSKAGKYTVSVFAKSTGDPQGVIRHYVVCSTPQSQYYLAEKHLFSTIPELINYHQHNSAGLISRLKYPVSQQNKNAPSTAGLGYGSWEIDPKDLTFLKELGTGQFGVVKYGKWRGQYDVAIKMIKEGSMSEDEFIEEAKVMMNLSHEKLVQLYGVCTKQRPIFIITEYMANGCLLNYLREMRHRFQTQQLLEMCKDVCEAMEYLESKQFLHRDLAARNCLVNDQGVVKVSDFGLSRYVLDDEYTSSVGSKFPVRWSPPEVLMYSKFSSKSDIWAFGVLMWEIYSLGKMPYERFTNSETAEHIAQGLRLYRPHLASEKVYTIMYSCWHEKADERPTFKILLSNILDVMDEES
Turning to `CN1CCN(C(C)(C)C=C(C#N)C(=O)N2CCC[C@@H](c3nc(-c4ccc(Oc5ccccc5)cc4F)c4c(N)nccn34)C2)CC1=O`, the IC50 is 2.6 nM.
`CC(C)(C=C(C#N)C(=O)N1CCC[C@@H](c2nc(-c3ccc(Oc4ccccc4)cc3F)c3c(N)nccn23)C1)N1CCN(C2(C)COC2)CC1`: the IC50 is 2.4 nM.
With `Cc1cc(-c2nn([C@@H]3CCCN(C(=O)C(C#N)=CC(C)(C)N4CCN(C5COC5)CC4)C3)c3ccnc(N)c23)ccc1Oc1ccccc1`, the IC50 is 1.3 nM.
As to `CC(C)(C=C(C#N)C(=O)N1CCC[C@@H](n2nc(-c3ccc(C(=O)Nc4ccccn4)cc3)c3c(N)nccc32)C1)N1CCN(C2COC2)CC1`, the IC50 is 2.2 nM.
For the molecule `CC(C)(C=C(C#N)C(=O)N1CCC[C@@H](n2nc(-c3ccc(Oc4ccccc4)cc3F)c3c(N)nccc32)C1)N1CCN(C2COC2)CC1`, the IC50 was 1.4 nM.
As for `CC(C)(C=C(C#N)C(=O)N1CCC[C@@H](n2nc(-c3ccc(Oc4ccccc4)cc3F)c3c(N)ncnc32)C1)N1CCN(C2(C)COC2)CC1`, the 50% inhibitory concentration (IC50) is 0.3 nM.
Take `CC(C)(C=C(C#N)C(=O)N1CCC[C@@H](n2nc(-c3ccc(Oc4ccccc4)cc3F)c3c(N)nccc32)C1)C1(C)CCN(C2COC2)CC1`: the IC50 is 45.7 nM.
For the molecule `CC(C)(C=C(C#N)C(=O)N1CCC[C@@H](n2nc(-c3ccc(Oc4ccccc4)cc3F)c3c(N)nccc32)C1)N1CCN(C2(C)COC2)CC1`, the IC50 was 0.8 nM.
With `CC(C)(C=C(C#N)C(=O)N1CCC[C@@H](n2nc(-c3ccc(Oc4ccccc4F)cc3)c3c(N)nccc32)C1)N1CCN(C2COC2)CC1` the figure was 2.2 nM.

Usually IC50 stands for the point on the concentration scale where inhibition reaches its midpoint.
